Assay results as given in patent US20240287076A1, “COMPOUNDS FOR TARGETING DEGRADATION OF BRUTON'S TYROSINE KINASE” (BIOGEN MA INC., priority 2021, published 2024).

target: T1, BTK (Homo sapiens, UniProt Q06187); test: BTK degradation assay using the HiBiT Method (Nano-Glo HiBiT Lytic Assay, GM01501.3 cells); assay type: cell-based; settings: HiBiT Degradation on GM01501.3 BTK @ 6 hours
T1 construct: The GM01501.3 cell line endogenously expresses BTK with a HiBiT fusion tag via CRISPR knock-in at its C-terminal region; endogenous in cells; host or cells: GM01501.3 (GM01501 cells engineered by CRISPR knock-in of HiBiT at the BTK locus)
T1 sequence (Q06187 whole entry, the tested form may be a part): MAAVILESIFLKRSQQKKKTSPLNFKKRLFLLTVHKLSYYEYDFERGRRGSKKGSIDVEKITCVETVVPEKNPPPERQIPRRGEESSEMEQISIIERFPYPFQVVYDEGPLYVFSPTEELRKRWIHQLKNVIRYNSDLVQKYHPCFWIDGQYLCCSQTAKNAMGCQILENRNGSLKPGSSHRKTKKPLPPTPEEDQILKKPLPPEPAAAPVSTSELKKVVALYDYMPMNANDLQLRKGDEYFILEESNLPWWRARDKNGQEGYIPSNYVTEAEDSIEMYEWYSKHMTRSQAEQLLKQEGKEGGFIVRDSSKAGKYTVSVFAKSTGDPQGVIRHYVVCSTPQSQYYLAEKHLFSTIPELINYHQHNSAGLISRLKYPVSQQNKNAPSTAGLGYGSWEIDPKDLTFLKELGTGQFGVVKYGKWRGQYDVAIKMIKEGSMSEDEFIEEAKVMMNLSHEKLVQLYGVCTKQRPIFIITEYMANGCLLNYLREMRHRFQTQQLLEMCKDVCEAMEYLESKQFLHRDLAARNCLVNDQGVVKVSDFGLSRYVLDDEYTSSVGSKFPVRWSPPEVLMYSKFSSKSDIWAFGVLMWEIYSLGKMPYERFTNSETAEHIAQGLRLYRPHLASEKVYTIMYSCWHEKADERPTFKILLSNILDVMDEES
Summary of the method: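 CRISPR knock-in GM01501.3 cells expressing endogenous BTK with C-terminal HiBiT tag, treated 6 h at 37 °C with compounds, 11-point half-log titration from 10 μM top, duplicates. Remaining BTK quantified by Nano-Glo HiBiT lytic luminescence versus DMSO controls; DC50 reported.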

| DC50 | SMILES |
| --- | --- |
| < 100 nM | Cc1cc(-c2ncnn3cc(-c4ccc(CN5CCC(c6ccc(NC7CCC(=O)NC7=O)cc6)CC5)cc4)cc23)ccc1CNC(=O)c1coc(C(C)(C)C)n1 (stereo not drawn) [Example 78, 2-tert-butyl-N-[[4-[6-[4-[[4-[4-[(2,6-dioxo-3-piperidyl)amino]phenyl]-1-piperidyl]methyl]phenyl]pyrrolo[2,1-f][1,2,4]triazin-4-yl]-2-methyl-phenyl]methyl]oxazole-4-carboxamide] |
| < 100 nM | Cc1cc(-c2ncnn3cc(-c4ccc(CN5CCC(c6ccc(NC7CCC(=O)NC7=O)cc6)CC5)cc4)cc23)ccc1CNC(=O)c1nc(C(C)(C)C)no1 (stereo not drawn) [Example 79, 3-tert-butyl-N-[[4-[6-[4-[[4-[4-[(2,6-dioxo-3-piperidyl)amino]phenyl]-1-piperidyl]methyl]phenyl]pyrrolo[2,1-f][1,2,4]triazin-4-yl]-2-methyl-phenyl]methyl]-1,2,4-oxadiazole-5-carboxamide] |
| < 100 nM | Cc1cc(-c2ncnn3cc(-c4ccc(CN5CCC(c6ccc(NC7CCC(=O)NC7=O)cc6)CC5)cc4)cc23)ccc1CNC(=O)c1nc(C(C)(C)C)co1 (stereo not drawn) [Example 80, 4-tert-butyl-N-[[4-[6-[4-[[4-[4-[(2,6-dioxo-3-piperidyl)amino]phenyl]-1-piperidyl]methyl]phenyl]pyrrolo[2,1-f][1,2,4]triazin-4-yl]-2-methyl-phenyl]methyl]oxazole-2-carboxamide] |
| < 100 nM | Cc1cc(-c2ncnn3cc(-c4ccc(CN5CCC(c6ccc(NC7CCC(=O)NC7=O)cc6)CC5)cc4)cc23)ccc1CNC(=O)CCC(C)(C)C (stereo not drawn) [Example 81, N-[[4-[6-[4-[[4-[4-[(2,6-dioxo-3-piperidyl)amino]phenyl]-1-piperidyl]methyl]phenyl]pyrrolo[2,1-f][1,2,4]triazin-4-yl]-2-methyl-phenyl]methyl]-4,4-dimethyl-pentanamide] |
| < 100 nM | Cc1cc(-c2ncnn3cc(-c4ccc(CN5CCC(c6ccc(NC7CCC(=O)NC7=O)cc6)CC5)cc4)cc23)ccc1CNC(=O)c1cnc(C(C)(C)C)cn1 (stereo not drawn) [Example 82, 5-tert-butyl-N-[[4-[6-[4-[[4-[4-[(2,6-dioxo-3-piperidyl)amino]phenyl]-1-piperidyl]methyl]phenyl]pyrrolo[2,1-f][1,2,4]triazin-4-yl]-2-methyl-phenyl]methyl]pyrazine-2-carboxamide] |
| < 100 nM | Cc1cc(-c2ncnn3cc(-c4ccc(CN5CCC(c6ccc(NC7CCC(=O)NC7=O)cc6)CC5)cc4)cc23)ccc1CNC(=O)c1cc(C(C)(C)C)on1 (stereo not drawn) [Example 83, -tert-butyl-N-[[4-[6-[4-[[4-[4-[(2,6-dioxo-3-piperidyl)amino]phenyl]-1-piperidyl]methyl]phenyl]pyrrolo[2,1-f][1,2,4]triazin-4-yl]-2-methyl-phenyl]methyl]isoxazole-3-carboxamide] |
| < 100 nM | Cc1cc(-c2ncnn3cc(-c4ccc(CN5CCC(c6ccc(NC7CCC(=O)NC7=O)cc6)CC5)cc4)cc23)ccc1CNC(=O)c1ccc(C(C)(C)C)cc1 (stereo not drawn) [Example 84, 4-tert-butyl-N-[[4-[6-[4-[[4-[4-[(2,6-dioxo-3-piperidyl)amino]phenyl]-1-piperidyl]methyl]phenyl]pyrrolo[2,1-f][1,2,4]triazin-4-yl]-2-methyl-phenyl]methyl]benzamide] |
| < 100 nM | Cc1cc(-c2ncnn3cc(-c4ccc(CN5CCC(c6ccc(NC7CCC(=O)NC7=O)cc6)CC5)cc4)cc23)ccc1CNC(=O)c1cnc(C(C)(C)C)o1 (stereo not drawn) [Example 85, 2-tert-butyl-N-[[4-[6-[4-[[4-[4-[(2,6-dioxo-3-piperidyl)amino]phenyl]-1-piperidyl]methyl]phenyl]pyrrolo[2,1-f][1,2,4]triazin-4-yl]-2-methyl-phenyl]methyl]oxazole-5-carboxamide] |
| < 100 nM | Cc1cc(-c2ncnn3cc(-c4ccc(CN5CCC(c6ccc(NC7CCC(=O)NC7=O)cc6)CC5)cc4)cc23)ccc1CNC(=O)c1ncc(C(C)(C)C)o1 (stereo not drawn) [Example 86, 5-tert-butyl-N-[[4-[6-[4-[[4-[4-[(2,6-dioxo-3-piperidyl)amino]phenyl]-1-piperidyl]methyl]phenyl]pyrrolo[2,1-f][1,2,4]triazin-4-yl]-2-methyl-phenyl]methyl]oxazole-2-carboxamide] |

Second part, the compound before the results:

| SMILES | DC50 |
| --- | --- |
| Cc1cc(-c2ncnn3cc(-c4ccc(CN5CCC(c6ccc(NC7CCC(=O)NC7=O)cc6)CC5)cc4)cc23)ccc1CNC(=O)c1ccc(C(C)C)nc1 (stereo not drawn) [Example 69, N-[[4-[6-[4-[[4-[4-[(2,6-dioxo-3-piperidyl)amino]phenyl]-1-piperidyl]methyl]phenyl]pyrrolo[2,1-f][1,2,4]triazin-4-yl]-2-methyl-phenyl]methyl]-6-isopropyl-pyridine-3-carboxamide] | < 100 nM |
| Cc1cc(-c2ncnn3cc(-c4ccc(CN5CCC(c6ccc(NC7CCC(=O)NC7=O)cc6)CC5)cc4)cc23)ccc1CNC(=O)COCC(C)(C)C (stereo not drawn) [Example 70, 2-(2,2-dimethylpropoxy)-N-[[4-[6-[4-[[4-[4-[(2,6-dioxo-3-piperidyl)amino]phenyl]-1-piperidyl]methyl]phenyl]pyrrolo[2,1-f][1,2,4]triazin-4-yl]-2-methyl-phenyl]methyl]acetamide] | < 100 nM |
| Cc1cc(-c2ncnn3cc(-c4ccc(CN5CCC(c6ccc(NC7CCC(=O)NC7=O)cc6)CC5)cc4)cc23)ccc1CNC(=O)c1cc2c(s1)CCCC2 (stereo not drawn) [Example 71, N— [[4-[6-[4-[[4-[4-[(2,6-dioxo-3-piperidyl)amino]phenyl]-1-piperidyl]methyl]phenyl]pyrrolo[2,1-f][1,2,4]triazin-4-yl]-2-methyl-phenyl]methyl]-4,5,6,7-tetrahydrobenzothiophene-2-carboxamide] | < 100 nM |
| Cc1cc(-c2ncnn3cc(-c4ccc(CN5CCC(c6ccc(NC7CCC(=O)NC7=O)cc6)CC5)cc4)cc23)ccc1CNC(=O)c1ccc(C(C)(F)F)cc1 (stereo not drawn) [Example 72, 4-(1,1-difluoroethyl)-N-[[4-[6-[4-[[4-[4-[(2,6-dioxo-3-piperidyl)amino]phenyl]-1-piperidyl]methyl]phenyl]pyrrolo[2,1-f][1,2,4]triazin-4-yl]-2-methyl-phenyl]methyl]benzamide] | < 100 nM |
| Cc1cc(-c2ncnn3cc(-c4ccc(CN5CCC(c6ccc(NC7CCC(=O)NC7=O)cc6)CC5)cc4)cc23)ccc1CNC(=O)c1ccc(C(F)(F)F)cc1 (stereo not drawn) [Example 73, N-[[4-[6-[4-[[4-[4-[(2,6-dioxo-3-piperidyl)amino]phenyl]-1-piperidyl]methyl]phenyl]pyrrolo[2,1-f][1,2,4]triazin-4-yl]-2-methyl-phenyl]methyl]-4-(trifluoromethyl)benzamide] | < 100 nM |
| Cc1cc(-c2ncnn3cc(-c4ccc(CN5CCC(c6ccc(NC7CCC(=O)NC7=O)cc6)CC5)cc4)cc23)ccc1CNC(=O)CCCC(C)(C)C (stereo not drawn) [Example 74, N-[[4-[6-[4-[[4-[4-[(2,6-dioxo-3-piperidyl)amino]phenyl]-1-piperidyl]methyl]phenyl]pyrrolo[2,1-f][1,2,4]triazin-4-yl]-2-methyl-phenyl]methyl]-5,5-dimethyl-hexanamide] | < 100 nM |
| Cc1cc(-c2ncnn3cc(-c4ccc(CN5CCC(c6ccc(NC7CCC(=O)NC7=O)cc6)CC5)cc4)cc23)ccc1CNC(=O)C12CC(C(C)(C)C)(C1)C2 (stereo not drawn) [Example 75, 3-tert-butyl-N-[[4-[6-[4-[[4-[4-[(2,6-dioxo-3-piperidyl)amino]phenyl]-1-piperidyl]methyl]phenyl]pyrrolo[2,1-f][1,2,4]triazin-4-yl]-2-methyl-phenyl]methyl]bicyclo[1.1.1]pentane-1-carboxamide] | < 100 nM |
| Cc1cc(-c2ncnn3cc(-c4ccc(CN5CCC(c6ccc(NC7CCC(=O)NC7=O)cc6)CC5)cc4)cc23)ccc1CNC(=O)c1ncc(C(C)C)cc1F (stereo not drawn) [Example 76, N-[[4-[6-[4-[[4-[4-[(2,6-dioxo-3-piperidyl)amino]phenyl]-1-piperidyl]methyl]phenyl]pyrrolo[2,1-f][1,2,4]triazin-4-yl]-2-methyl-phenyl]methyl]-3-fluoro-5-isopropyl-pyridine-2-carboxamide] | < 100 nM |
| Cc1cc(-c2ncnn3cc(-c4ccc(CN5CCC(c6ccc(NC7CCC(=O)NC7=O)cc6)CC5)cc4)cc23)ccc1CNC(=O)c1cc2ccccc2s1 (stereo not drawn) [Example 77, N-[[4-[6-[4-[[4-[4-[(2,6-dioxo-3-piperidyl)amino]phenyl]-1-piperidyl]methyl]phenyl]pyrrolo[2,1-f][1,2,4]triazin-4-yl]-2-methyl-phenyl]methyl]benzothiophene-2-carboxamide] | < 100 nM |
| Cc1ccc(C(=O)NCc2ccc(-c3ncnn4cc(-c5ccc(CN6CCC(c7ccc(NC8CCC(=O)NC8=O)cc7)CC6)cc5)cc34)cc2C)nc1 (stereo not drawn) [Example 87, N-[[4-[6-[4-[[4-[4-[(2,6-dioxo-3-piperidyl)amino]phenyl]-1-piperidyl]methyl]phenyl]pyrrolo[2,1-f][1,2,4]triazin-4-yl]-2-methyl-phenyl]methyl]-5-methyl-pyridine-2-carboxamide] | < 100 nM |
| Cc1cc(-c2ncnn3cc(-c4ccc(CN5CCC(c6ccc(NC7CCC(=O)NC7=O)cc6)CC5)cc4)cc23)ccc1CNC(=O)c1ccc(C(F)(F)F)cn1 (stereo not drawn) [Example 88, N-[[4-[6-[4-[[4-[4-[(2,6-dioxo-3-piperidyl)amino]phenyl]-1-piperidyl]methyl]phenyl]pyrrolo[2,1-f][1,2,4]triazin-4-yl]-2-methyl-phenyl]methyl]-5-(trifluoromethyl)pyridine-2-carboxamide] | < 100 nM |
| Cc1cc(-c2ncnn3cc(-c4ccc(CN5CCC(c6ccc(NC7CCC(=O)NC7=O)cc6)CC5)cc4)cc23)ccc1CNC(=O)c1ccc(C(C)C)cn1 (stereo not drawn) [Example 89, N-[[4-[6-[4-[[4-[4-[(2,6-dioxo-3-piperidyl)amino]phenyl]-1-piperidyl]methyl]phenyl]pyrrolo[2,1-f][1,2,4]triazin-4-yl]-2-methyl-phenyl]methyl]-5-isopropyl-pyridine-2-carboxamide] | < 100 nM |
